Source: publication PMC8010149, “A Therapeutic Strategy to Combat HIV-1 Latently Infected Cells With a Combination of Latency-Reversing Agents Containing DAG-Lactone PKC Activators” (Frontiers in Microbiology, 2021)

What was measured:
[1] = system: PBMCs from healthy donors; assay: Acute cytotoxicity in primary cells (fixable viability dye, flow cytometry); type: cell-based
Method: For T cell activation and exhaustion marker staining, PBMCs from healthy donors separated by the above density gradient centrifugation method were incubated with fixable viability stain Ghost Dye 780 (TONBO Biosciences) for 30 min on ice. […] Next, the cells were analyzed using BD FACSVerse (BD Biosciences). In the analysis, unstained cells were used as a negative control to set the gating for each experiment. The collected data were analyzed using FlowJo software (Tree Star, San Carlos, CA, United States).
The ratio of living cells was calculated for fixable viability dye negative cell populations by flow cytometry. Data are shown as means ± SDs of three independent experiments.

[2] = Cytotoxicity of LRAs in U937 cells; type: cell-based; settings: human, day 7
Method: (§1) To determine the cytotoxicity of LRAs, A3.01, and U937 cells (5 × 10^5 cells/ml), which are the parental cells for ACH-2 and U1 cells, respectively, were cultured in the presence or absence of LRAs. After 7 days, cell viability was examined using the Cell Counting Kit-8 assay (Dojindo, Kumamoto, Japan) according to the manufacturer’s instructions. The numbers of living cells after drug treatment were measured and compared to those in untreated cells and are presented as a percentage relative to the control.

[3] = system: CD8+PD1+CD38+ primary T cells; assay: Immune exhaustion markers, CD8+PD1+CD38+ primary T cells; type: cell-based, human; settings: PBMCs from healthy donors, 24 h
Method: (§2) The amount of intracellular HIV-1 p24 and the active form of caspase-3 were determined by flow cytometry, as previously described ([Matsuda et al., 2015], [2019]). In brief, ACH-2 and U1 cells (2.5 × 10^5 cells/ml) were fixed with 1% paraformaldehyde/PBS for 20 min and permeabilized with Flow Cytometry Perm Buffer (TONBO Biosciences, San Diego, CA, United States). After 5 min of incubation at room temperature, the cells were stained with FITC anti-HIV-1 p24 (24-4) monoclonal antibody (mAb; Santa Cruz Biotechnology, Dallas, TX, United States) or Alexa Fluor 647-conjugated anti-active caspase-3 (C92-605) mAb (BD Pharmingen, San Diego, CA, United States) for 30 min on ice. For T cell activation and exhaustion marker staining, PBMCs from healthy donors separated by the above density gradient centrifugation method were incubated with fixable viability stain Ghost Dye 780 (TONBO Biosciences) for 30 min on ice. The cells were then stained with Brilliant Violet 510 anti-human CD3 (UCHT1) mAb (BioLegend), FITC anti-human CD4 (RPA-T4) mAb (TONBO Biosciences), PE-Cy7 anti-human CD8a (RPA-T8) mAb (TONBO Biosciences), PerCP-Cy5.5 anti-human CD38 (HB-7) mAb (BioLegend), PE anti-human CD69 (FN50) mAb (BioLegend), or Alexa Fluor 647 anti-human CD279/PD-1 (EH12.1) mAb (BD Biosciences, San Jose, CA, United States) for 30 min on ice. Next, the cells were analyzed using BD FACSVerse (BD Biosciences). In the analysis, unstained cells were used as a negative control to set the gating for each experiment. The collected data were analyzed using FlowJo software (Tree Star, San Carlos, CA, United States).

[4] = system: CD4+ or CD8+ primary T cells; assay: T cell activation, CD69 expression on CD4+ or CD8+ primary T cells; type: cell-based, human; settings: 1 μM, 24 h, compared to prostratin and PEP005
Method: as §2, with “The cells were then stained with Brilliant Violet 510 anti-human CD3 (UCHT1) mAb (BioLegend), FITC anti-human CD4 (RPA-T4) mAb (TONBO Biosciences), PE-Cy7 anti-human CD8a (RPA-T8) mAb (TONBO Biosciences), PerCP-Cy5.5 anti-human CD38 (HB-7) mAb (BioLegend), PE anti-human CD69 (FN50) mAb (BioLegend), or Alexa Fluor 647 anti-human CD279/PD-1 (EH12.1) mAb (BD Biosciences, San Jose, CA, United States) for 30 min on ice.” left out, “In the analysis, unstained cells were used as a negative control to set the gating for each experiment.” left out

[5] = Cytotoxicity of LRAs in A3.01 cells; type: cell-based; settings: human, day 7
Method: as §1

[6] = system: BALB/c mice; assay: In vivo acute toxicity (24 h) in BALB/c mice; settings: intraperitoneal, 100 μg/kg–10 mg/kg
From the text: BALB/c mice were purchased from Charles River Laboratories Japan, Inc. (Yokohama, Japan). Female mice at 5 weeks of age were used for the experiments. The mice were housed and monitored in our animal research facility according to the institutional guidelines. All experimental procedures and protocols were approved by the Institutional Animal Care and Use Committee of Kumamoto University.

[7] = system: A3.01 cells; assay: Active caspase-3 by flow cytometry in A3.01 cells; type: cell-based; settings: 10 μM, 24 h
[8] = system: HIV-1 latently infected U1 cells; assay: Intracellular HIV-1 p24 by flow cytometry in U1 cells; type: cell-based; settings: 24 h
Method: The reactivation of HIV-1 from latently infected cells was determined by intracellular p24 protein expression and quantification of p24 antigen in the supernatant (ACH-2 and U1 cells), or by changes in intracellular green fluorescent protein (GFP) expression (J-Lat 10.6 cells). J-Lat ([Jordan et al., 2003]), ACH-2, or U1 cells (5 × 10^5 cells/ml) were seeded in 96-well plates and incubated with different drug concentrations for 24 h to collect the cells. The supernatant was collected after 48 h. The increase in supernatant p24 antigen levels was measured using a Lumipulse G1200 (FUJIREBIO, Tokyo, Japan). J-Lat cells (5 × 10^5 cells/ml) were placed in 48-well plates and incubated with different drug concentrations for 24 h. Intracellular p24 protein expression and GFP-positive cells were analyzed by flow cytometry.
as §2

CCCC(CCC)C(=O)OCC1(CO)CC(=C(C)C)C(=O)O1 (centres unmarked) [YSE028]
toxicity of LRAs in combination in primary cells ([1]; YSE028 10 μM with JQ1 1 μM, Supplementary Figure S3A): did not cause increased toxicity in combination
acute toxicity in primary cells ([1]; up to 100 μM, 24 h): did not show acute toxicity
CC50 at 7 days [2]: > 100 µM
increase in CD8+ PD1+ CD38+ T cells [3]: only moderate
CD69+ cells in primary T cells (global T cell activation) [4]: less effect
CC50 at 7 days [5]: > 100 µM
survival [6]: all of them survived
caspase-3 activation [7]: 5.81%
intracellular p24-positive live cells (flow cytometry quadrant) ([8]; 0.1 µM): 0.239
intracellular p24-positive live cells (flow cytometry quadrant) ([8]; 1 µM): 1.13
intracellular p24-positive live cells (flow cytometry quadrant) ([8]; 10 µM): 36.3
